Data reported in ChEMBL document CHEMBL1201862, “PubChem BioAssay data set” (2004).
The source made the active and inactive calls.

Tests used:
Cytochrome P450 2C9 = Cytochrome P450 2C9 (Homo sapiens, UniProt P11712)
Cytochrome P450 2C19 = Cytochrome P450 2C19 (Homo sapiens, UniProt P33261); assay: Cytochrome panel assay with activity outcomes. Panel member name: p450-cyp2c19 Compounds with AC50 equal or less than 10 uM are considered active; format: functional; conditions: read-out: AC50
[1] = A cytotoxicity screen of small molecule inhibitors of the PhoP region in Salmonella typhi identified in the primary screen. [Related pubchem assays: 1850, 1864, 1985 ]; format: functional
Fatty acid synthase [2] = biological target: T1, Fatty acid synthase (Homo sapiens, UniProt P49327); assay: FAS thioesterase domain inhibitors, dose response, biochemical, endpoint fluorescence intensity, uHTS hits (AID 624327); format: functional;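 also: fluorescence from hydrolysis of an O-methyl fluorescein acyl ester substrate by the enzyme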
Fatty acid synthase [3] = biological target: T1, Fatty acid synthase; assay: FAS thioesterase domain inhibitors, dose response, biochemical, kinetic fluorescence intensity (AID 624326); format: functional;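 also: rate of fluorescence rise from hydrolysis of a fluorogenic O-methyl fluorescein ester substrate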
Cytochrome P450 3A4 [4] = biological target: T2, Cytochrome P450 3A4 (Homo sapiens, UniProt P08684); conditions: Potency
cells [5] = format: functional, cell-based
cells [6] = format: functional, cell-based; remark: listed apart in the source
Estrogen receptor = biological target: T3, Estrogen receptor (Homo sapiens, UniProt P03372);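 also: potency for inhibiting coactivator peptide recruitment to the receptor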
T3 sequence (P03372 whole entry): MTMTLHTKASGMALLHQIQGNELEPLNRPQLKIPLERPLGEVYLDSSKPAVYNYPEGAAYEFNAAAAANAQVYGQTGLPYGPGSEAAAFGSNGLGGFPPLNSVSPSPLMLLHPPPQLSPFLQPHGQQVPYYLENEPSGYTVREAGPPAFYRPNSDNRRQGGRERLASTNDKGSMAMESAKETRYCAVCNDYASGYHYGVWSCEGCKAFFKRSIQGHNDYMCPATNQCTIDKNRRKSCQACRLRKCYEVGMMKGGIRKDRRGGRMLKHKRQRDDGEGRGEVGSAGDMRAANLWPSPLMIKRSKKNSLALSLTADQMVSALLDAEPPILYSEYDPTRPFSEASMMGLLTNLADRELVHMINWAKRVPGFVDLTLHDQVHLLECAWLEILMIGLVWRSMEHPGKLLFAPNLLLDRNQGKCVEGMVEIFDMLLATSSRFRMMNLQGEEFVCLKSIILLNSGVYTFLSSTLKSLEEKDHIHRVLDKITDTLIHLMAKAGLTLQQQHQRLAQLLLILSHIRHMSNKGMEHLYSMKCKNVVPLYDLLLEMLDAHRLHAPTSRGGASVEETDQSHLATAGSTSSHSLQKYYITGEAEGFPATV

[7] = THP-1 cell cytotoxicity, dose response, cytotoxicity control for Vif-APOBEC3G degradation inhibitor project, THP-1 cells (AID 1117359); format: functional; conditions: Human immunodeficiency virus 1, THP-1
[8] = growth suppression of beta-catenin-knockout colon cells, dose response, cell-based, HCT116, human colon tumor (AID 1045); format: functional;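 also: HCT116 colon tumor cells with beta catenin knocked out; cells exposed to compound for 60 hours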
[9] = biological target: Induced myeloid leukemia cell differentiation protein Mcl-1 (Homo sapiens, UniProt Q07820); format: functional
[10] = biological target: T4, Carboxy-terminal domain RNA polymerase II polypeptide A small phosphatase 1 (Homo sapiens, UniProt Q9GZU7); assay: inhibitors of CTDSP1, concentration-response testing, biochemical assay, absorbance-based, actives from ultra-high-throughput screening (AID 540297); format: functional
T4 sequence (Q9GZU7 whole entry): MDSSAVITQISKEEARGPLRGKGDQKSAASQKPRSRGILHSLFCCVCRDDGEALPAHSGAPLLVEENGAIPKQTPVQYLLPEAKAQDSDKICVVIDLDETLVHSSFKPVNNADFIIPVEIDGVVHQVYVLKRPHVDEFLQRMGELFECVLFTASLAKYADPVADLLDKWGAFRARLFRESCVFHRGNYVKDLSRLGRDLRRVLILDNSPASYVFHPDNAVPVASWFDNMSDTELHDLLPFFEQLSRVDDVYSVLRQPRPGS

Cytochrome P450 3A4 [11] = biological target: T2, Cytochrome P450 3A4
Cytochrome P450 1A2 = biological target: T5, Cytochrome P450 1A2 (Homo sapiens, UniProt P05177);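 also: PubChem cytochrome P450 panel assay, CYP1A2 panel member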
T5 sequence (P05177 whole entry): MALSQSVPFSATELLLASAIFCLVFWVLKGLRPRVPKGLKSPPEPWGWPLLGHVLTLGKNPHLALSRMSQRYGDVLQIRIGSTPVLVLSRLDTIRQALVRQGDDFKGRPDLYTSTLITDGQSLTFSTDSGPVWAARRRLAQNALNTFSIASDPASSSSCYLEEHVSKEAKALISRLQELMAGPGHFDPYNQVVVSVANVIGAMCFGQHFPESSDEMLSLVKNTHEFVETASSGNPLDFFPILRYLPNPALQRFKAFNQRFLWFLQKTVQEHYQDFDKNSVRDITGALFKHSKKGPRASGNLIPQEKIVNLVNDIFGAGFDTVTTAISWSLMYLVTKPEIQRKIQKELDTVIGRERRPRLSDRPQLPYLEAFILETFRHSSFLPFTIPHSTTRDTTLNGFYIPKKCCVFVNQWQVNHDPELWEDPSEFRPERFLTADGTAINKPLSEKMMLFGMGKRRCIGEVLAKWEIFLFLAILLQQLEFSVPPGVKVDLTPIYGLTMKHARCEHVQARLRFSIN

[12] = off-target signal loss in HeLa-CEM21 co-culture – HeLa F-luc CTL cells, cherry-picked, counter-screen for HIV-1 Env fusion inhibitor project, dose response (AID 652040); format: functional, cell-based;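 also: potency for signal decrease marking cytotoxic or nonspecific inhibition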
[13] = inhibitors of HIV Env-driven cell fusion, dose response, cherry-pick (AID 652057); format: functional, cell-based
[14] = ZM109 Env clade C HIV-1 fusion inhibitors, dose response, HeLa effector, CEM target cells, luciferase, cherry-pick (AID 652058); format: functional, cell-based
[15] = inhibitors of clade B AD8 Env fusion, dose response, cell-based, cherry-pick (AID 652062); format: functional;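 also: luciferase signal from cell-cell fusion driven by HIV-1 clade B AD8 Env; potency is for inhibitors of fusion seen as a drop in luminescence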
[16] = LGR2 antagonists, dose response, cell-based, HEK293, CRE-luciferase reporter, cherry pick, set 2 (AID 743343); format: functional;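 also: transfected cells were stimulated with diluted bursicon conditioned medium after compound addition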
[17] = MC4R antagonists, dose response, counter-screen for LGR2 antagonist project, cell-based, plate reader, cherry pick (AID 743444); format: functional;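 also: transfected HEK 293 cells stimulated with alpha-MSH peptide; potency of inhibitors of the alpha-MSH evoked signal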
Paired box protein Pax-8 = Paired box protein Pax-8 (Homo sapiens, UniProt Q06710); assay: inhibitors of PAX8-driven TPO luciferase reporter, dose response, RMG-I cells, cherry-pick (AID 687027); format: functional, cell-based;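 also: luciferase reporter driven by Pax8 target thyroperoxidase promoter measured by SteadyGlo luminescence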
[18] = cytotoxicity in OVCAR8 ovarian cancer cells, dose response, PAX8 project, cell-based, plate reader, dry powder samples (AID 743197); format: functional; conditions: OVCAR-8
[19] = P. falciparum Dd2 growth inhibitors, dose response, SYBR Green, cherry-picked samples (AID 1159567); format: functional, cell-based
[20] = P. falciparum 3D7-ScDHODH growth inhibitors, dose response, SYBR Green, dry powder samples (AID 1159570); format: functional, cell-based;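 also: parasite growth measured after 72 hours of compound exposure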
[21] = P. falciparum Dd2 growth inhibitors, dose response, SYBR Green, dry powder samples (AID 1159566); format: functional, cell-based;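 also: potency for growth inhibition with lower SYBR green DNA signal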
[22] = HepG2 cell cytotoxicity, dose response, cytotoxicity control, plate reader, dry powder samples (AID 1159569); format: functional, cell-based;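 also: inhibitor potency with signal falling toward the positive control level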
[23] = P. falciparum ATP4 D1247Y mutant growth inhibitors, dose response, NITD609-resistant line, SYBR Green, dry powder (AID 1159571); format: functional, cell-based;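 also: parasites synchronized at ring stage by sorbitol before testing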
Nonstructural protein 1 = Nonstructural protein 1 (Influenza A virus, UniProt Q194T2); format: functional, Influenza A virus (A/California/07/2009(H1N1))
Chain of Nonstructural protein 1 (Q194T2 whole entry): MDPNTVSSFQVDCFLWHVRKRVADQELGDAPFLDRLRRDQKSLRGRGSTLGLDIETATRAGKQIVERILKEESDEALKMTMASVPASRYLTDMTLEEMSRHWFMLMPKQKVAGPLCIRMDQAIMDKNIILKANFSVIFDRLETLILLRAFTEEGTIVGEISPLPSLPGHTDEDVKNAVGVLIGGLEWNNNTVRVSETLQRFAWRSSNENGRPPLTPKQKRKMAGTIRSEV

T2 sequence (P08684 whole entry): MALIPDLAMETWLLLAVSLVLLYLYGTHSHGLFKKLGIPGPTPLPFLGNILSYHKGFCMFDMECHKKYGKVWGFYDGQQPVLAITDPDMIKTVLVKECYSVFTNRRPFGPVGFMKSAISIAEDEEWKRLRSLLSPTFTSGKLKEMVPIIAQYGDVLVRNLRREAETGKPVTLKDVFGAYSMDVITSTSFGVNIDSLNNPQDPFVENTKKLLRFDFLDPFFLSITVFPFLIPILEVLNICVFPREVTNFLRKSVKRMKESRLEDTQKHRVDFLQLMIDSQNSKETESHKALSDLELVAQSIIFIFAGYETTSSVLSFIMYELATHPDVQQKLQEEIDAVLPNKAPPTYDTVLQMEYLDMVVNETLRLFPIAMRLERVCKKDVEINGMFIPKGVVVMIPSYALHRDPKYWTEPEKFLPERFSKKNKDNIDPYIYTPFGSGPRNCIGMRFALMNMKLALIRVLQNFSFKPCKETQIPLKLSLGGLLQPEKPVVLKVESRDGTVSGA
T1 sequence (P49327 whole entry, the tested form may be a part): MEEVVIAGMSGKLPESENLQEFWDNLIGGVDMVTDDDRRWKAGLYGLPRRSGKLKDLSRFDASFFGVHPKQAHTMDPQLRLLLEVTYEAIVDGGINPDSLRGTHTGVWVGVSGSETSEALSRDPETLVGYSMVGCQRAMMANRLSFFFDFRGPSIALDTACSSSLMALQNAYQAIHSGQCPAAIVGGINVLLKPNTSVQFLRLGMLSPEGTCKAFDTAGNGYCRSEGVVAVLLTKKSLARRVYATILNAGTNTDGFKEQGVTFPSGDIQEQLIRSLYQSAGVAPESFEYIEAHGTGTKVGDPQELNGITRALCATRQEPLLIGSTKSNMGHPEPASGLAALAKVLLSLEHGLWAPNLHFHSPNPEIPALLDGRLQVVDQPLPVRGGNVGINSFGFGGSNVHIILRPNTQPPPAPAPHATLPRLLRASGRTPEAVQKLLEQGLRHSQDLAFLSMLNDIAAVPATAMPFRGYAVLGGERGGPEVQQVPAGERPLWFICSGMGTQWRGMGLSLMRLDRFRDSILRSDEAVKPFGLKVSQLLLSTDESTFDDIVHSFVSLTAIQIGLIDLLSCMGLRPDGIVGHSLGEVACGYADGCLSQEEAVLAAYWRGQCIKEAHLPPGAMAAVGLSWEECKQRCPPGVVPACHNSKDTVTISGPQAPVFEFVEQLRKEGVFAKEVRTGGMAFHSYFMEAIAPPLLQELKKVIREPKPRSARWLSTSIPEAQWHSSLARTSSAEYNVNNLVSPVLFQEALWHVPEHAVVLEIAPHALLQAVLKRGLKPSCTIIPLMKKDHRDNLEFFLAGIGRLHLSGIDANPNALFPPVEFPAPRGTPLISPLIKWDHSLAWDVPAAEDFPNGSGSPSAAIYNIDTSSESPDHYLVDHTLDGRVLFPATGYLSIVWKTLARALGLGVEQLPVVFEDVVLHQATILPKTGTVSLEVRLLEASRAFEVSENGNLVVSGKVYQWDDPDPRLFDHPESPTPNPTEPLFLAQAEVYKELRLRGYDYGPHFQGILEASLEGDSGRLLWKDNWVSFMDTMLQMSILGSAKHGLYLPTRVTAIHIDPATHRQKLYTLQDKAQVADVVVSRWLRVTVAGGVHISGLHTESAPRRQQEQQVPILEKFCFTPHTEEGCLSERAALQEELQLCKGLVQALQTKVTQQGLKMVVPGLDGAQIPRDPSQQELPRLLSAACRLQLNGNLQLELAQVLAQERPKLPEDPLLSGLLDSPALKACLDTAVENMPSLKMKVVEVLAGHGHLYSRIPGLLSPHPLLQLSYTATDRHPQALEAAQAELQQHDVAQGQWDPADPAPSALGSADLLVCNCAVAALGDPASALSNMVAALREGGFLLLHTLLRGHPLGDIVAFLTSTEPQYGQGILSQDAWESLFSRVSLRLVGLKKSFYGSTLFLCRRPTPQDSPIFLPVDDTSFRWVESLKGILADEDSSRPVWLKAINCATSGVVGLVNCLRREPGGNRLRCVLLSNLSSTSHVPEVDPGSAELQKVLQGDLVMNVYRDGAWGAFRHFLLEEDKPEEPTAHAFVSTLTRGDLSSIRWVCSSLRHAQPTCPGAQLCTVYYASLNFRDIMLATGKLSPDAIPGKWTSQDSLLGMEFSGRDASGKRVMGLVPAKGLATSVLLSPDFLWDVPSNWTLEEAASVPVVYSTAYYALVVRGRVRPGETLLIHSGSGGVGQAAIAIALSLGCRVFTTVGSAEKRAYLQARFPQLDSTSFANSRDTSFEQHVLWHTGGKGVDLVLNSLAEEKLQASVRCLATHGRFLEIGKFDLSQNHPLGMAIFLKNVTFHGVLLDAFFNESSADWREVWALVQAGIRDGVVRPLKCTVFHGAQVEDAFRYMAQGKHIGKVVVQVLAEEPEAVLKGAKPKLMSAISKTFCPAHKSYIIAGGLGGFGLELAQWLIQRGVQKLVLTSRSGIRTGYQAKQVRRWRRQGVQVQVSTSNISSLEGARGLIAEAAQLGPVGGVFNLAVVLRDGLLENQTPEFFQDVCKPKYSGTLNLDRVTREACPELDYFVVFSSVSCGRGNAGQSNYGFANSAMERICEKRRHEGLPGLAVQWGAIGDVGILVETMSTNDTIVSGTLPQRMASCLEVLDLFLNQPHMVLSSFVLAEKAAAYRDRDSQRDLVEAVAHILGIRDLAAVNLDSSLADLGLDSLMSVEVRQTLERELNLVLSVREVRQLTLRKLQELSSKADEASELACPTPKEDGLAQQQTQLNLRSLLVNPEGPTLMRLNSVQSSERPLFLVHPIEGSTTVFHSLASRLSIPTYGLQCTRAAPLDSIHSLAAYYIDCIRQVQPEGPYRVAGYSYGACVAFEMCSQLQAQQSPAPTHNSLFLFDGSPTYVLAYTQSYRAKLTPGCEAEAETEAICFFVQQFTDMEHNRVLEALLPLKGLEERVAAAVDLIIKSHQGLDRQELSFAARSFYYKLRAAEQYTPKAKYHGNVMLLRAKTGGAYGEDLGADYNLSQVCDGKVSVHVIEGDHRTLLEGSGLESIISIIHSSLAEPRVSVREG
Chain of Cytochrome P450 2C9 (P11712 whole entry): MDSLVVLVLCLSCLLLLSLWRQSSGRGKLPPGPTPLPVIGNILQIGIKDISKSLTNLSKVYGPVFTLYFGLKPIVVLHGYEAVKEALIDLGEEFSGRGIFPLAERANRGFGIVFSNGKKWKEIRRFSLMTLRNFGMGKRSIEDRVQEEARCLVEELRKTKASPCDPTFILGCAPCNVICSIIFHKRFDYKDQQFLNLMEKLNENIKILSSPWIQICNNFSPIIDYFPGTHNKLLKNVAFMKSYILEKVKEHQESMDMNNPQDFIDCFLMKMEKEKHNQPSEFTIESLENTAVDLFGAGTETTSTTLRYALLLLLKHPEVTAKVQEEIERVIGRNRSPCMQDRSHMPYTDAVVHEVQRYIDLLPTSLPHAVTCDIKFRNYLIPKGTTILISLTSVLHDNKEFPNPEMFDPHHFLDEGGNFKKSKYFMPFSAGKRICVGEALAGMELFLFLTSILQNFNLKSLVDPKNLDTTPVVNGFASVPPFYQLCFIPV
Chain of Paired box protein Pax-8 (Q06710 whole entry): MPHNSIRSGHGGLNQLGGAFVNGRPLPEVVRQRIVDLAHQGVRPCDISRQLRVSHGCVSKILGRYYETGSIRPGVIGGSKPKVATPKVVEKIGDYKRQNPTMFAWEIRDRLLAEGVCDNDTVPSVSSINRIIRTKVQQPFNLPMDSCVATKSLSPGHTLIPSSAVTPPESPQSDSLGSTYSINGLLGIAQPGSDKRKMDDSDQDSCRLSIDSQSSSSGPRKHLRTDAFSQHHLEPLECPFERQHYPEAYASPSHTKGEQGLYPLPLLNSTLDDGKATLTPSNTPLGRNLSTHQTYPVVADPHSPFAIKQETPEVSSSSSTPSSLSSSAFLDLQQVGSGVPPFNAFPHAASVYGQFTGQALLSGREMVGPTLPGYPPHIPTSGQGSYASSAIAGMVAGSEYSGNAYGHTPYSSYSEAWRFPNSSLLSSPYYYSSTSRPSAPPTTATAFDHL
Chain of Cytochrome P450 2C19 (P33261 whole entry): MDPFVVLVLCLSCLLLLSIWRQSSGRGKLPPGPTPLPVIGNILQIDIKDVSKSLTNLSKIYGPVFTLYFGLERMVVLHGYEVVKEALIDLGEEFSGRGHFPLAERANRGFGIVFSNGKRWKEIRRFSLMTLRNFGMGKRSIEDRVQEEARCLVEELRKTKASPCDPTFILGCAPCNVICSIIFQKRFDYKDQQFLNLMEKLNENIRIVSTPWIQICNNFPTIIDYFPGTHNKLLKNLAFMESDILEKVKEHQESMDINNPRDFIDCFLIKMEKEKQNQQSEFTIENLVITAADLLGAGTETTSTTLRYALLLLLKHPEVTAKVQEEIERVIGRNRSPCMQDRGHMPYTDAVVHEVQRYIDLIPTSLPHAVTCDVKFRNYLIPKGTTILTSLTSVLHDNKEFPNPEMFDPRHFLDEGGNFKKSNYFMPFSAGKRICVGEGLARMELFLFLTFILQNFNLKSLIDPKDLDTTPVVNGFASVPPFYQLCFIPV
Chain of Induced myeloid leukemia cell differentiation protein Mcl-1 (Q07820 whole entry, the tested form may be a part): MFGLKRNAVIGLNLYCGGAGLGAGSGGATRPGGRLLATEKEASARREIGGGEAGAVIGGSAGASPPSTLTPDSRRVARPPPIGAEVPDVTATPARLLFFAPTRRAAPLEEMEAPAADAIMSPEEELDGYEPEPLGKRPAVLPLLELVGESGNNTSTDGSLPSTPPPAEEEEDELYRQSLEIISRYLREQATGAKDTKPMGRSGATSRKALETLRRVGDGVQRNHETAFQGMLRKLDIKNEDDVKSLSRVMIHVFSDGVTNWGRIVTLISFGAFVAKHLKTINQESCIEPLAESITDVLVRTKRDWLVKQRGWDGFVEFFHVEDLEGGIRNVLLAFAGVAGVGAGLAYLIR

O=C(Nc1cccn2ncnc12)c1ccc(Cl)cc1Cl
AC50 (Cytochrome P450 2C9): inconclusive
AC50 (Cytochrome P450 2C19): 11.2 µM (inconclusive)

Clc1cccc(CN2C3=NCCCN3c3ccccc32)c1
EC50 [1]: > 50 µM (active)

CNC(=O)/C(=C\C=C\c1ccccc1)NC(=O)c1ccc([N+](=O)[O-])cc1
IC50 (Fatty acid synthase [2]): 0.786 µM (active)
IC50 (Fatty acid synthase [3]): 0.809 µM (active)

C=CCC1(C)OC=Cc2nc3cc(Cl)c(Cl)cc3nc21 (stereo not drawn)
AC50 (Cytochrome P450 3A4 [4]): 3.98 µM (inconclusive)

C=CCN(c1ccccc1)S(=O)(=O)c1cccc(C(=O)Nc2ncccc2O)c1
EC50 (cells [5]): > 350 µM (not active)
EC50 (cells [6]): > 350 µM (not active)

O=C(CCC(=O)c1cccs1)Nc1nnc(C2CC2)s1
IC50 (Estrogen receptor): > 50 µM (not active)

Cn1nc(C(=O)NCCCN2CCCCC2)c2c1-c1ccccc1S(=O)(=O)C2
EC50 (cells [5]): > 350 µM (not active)
EC50 (cells [6]): > 350 µM (not active)

O=C(Nc1ccc2oc(-c3ccccc3F)nc2c1)c1cncc(Br)c1
IC50 (Estrogen receptor): 15.5 µM (active)

CCCn1c(C)nc2c(Nc3ccccc3)nc(C)nc21
AC50 (Cytochrome P450 3A4 [4]): 31.6 µM (inconclusive)

CCN(CC)S(=O)(=O)c1ccc(/C=C/C(=O)Nc2ccc(N3CCOCC3)cc2)cc1
CC50 [7]: > 40 µM (active)

Cc1cc(NS(=O)(=O)c2ccc(NC(=O)C(C)Oc3ccc4c(C)cc(=O)oc4c3)cc2)no1 (stereo not drawn)
EC50 [1]: > 50 µM (active)

Cn1c(=O)c2nc(COc3ccc(C(C)(C)C)cc3)[nH]c2n(C)c1=O
IC50 (Fatty acid synthase [2]): 4.28 µM (active)
IC50 (Fatty acid synthase [3]): 6.26 µM (active)

CCN(CC)c1ccc(NC2=C(Cl)C(=O)c3ccccc3C2=O)cc1
EC50 [8]: 1 µM (active)
IC50 [9]: 1.47 µM (active)
CC50 [7]: 4.24 µM (active)

Cn1c(CN2CCCC2)nc2cc(NC(=O)COc3ccc(Cl)cc3)ccc21
EC50 [1]: > 50 µM (active)

O=C(CCCCCN1C(=O)c2ccccc2C1=O)Nc1ccc2c(c1)OCCO2
EC50 (cells [5]): > 350 µM (not active)
EC50 (cells [6]): > 350 µM (not active)

Cc1cc(C)cc(NC(=O)c2cccc(NC(=O)c3ccco3)c2)c1
EC50 (cells [5]): > 350 µM (not active)
EC50 (cells [6]): 34.9 µM (active)

O=C(CC(=O)NCc1ccccc1)NCc1ccccc1
EC50 [1]: > 50 µM (active)

CCOC(=O)C1=CC[C@H]2c3c(c4ccccc4n3C)C(=O)C1N2C(=O)OC(C)(C)C
IC50 (Fatty acid synthase [2]): 10.8 µM (active)
IC50 (Fatty acid synthase [3]): 11.9 µM (active)

COc1ccc2cc(C(=O)Nc3ccc(F)cc3)sc(=O)c2c1OC
AC50 (Cytochrome P450 2C9): inconclusive
IC50 [10]: 6.77 µM (active)

Oc1ccc(Cn2cc[nH]c2=S)cc1
AC50 (Cytochrome P450 3A4 [11]): 15.8 µM (inconclusive)
AC50 (Cytochrome P450 2C9): inconclusive
AC50 (Cytochrome P450 1A2): 6.31 µM (inconclusive)

CCCCN1CC(=O)N2[C@H]3c4ccccc4OC[C@@H]3[C@H](c3ccccc3)[C@]2(C)C1=O
AC50 [12]: 4.48 µM (active)
AC50 [13]: 3.64 µM (active)
AC50 [14]: 0.448 µM (active)
AC50 [15]: 29.7 µM (active)

O=C(O)c1ccc(-c2noc(-c3ccccc3Cl)n2)cc1
AC50 [16]: 28.3 µM (active)
AC50 [17]: 32.9 µM (active)

CCC(C)NC(=O)CSc1ccc(S(=O)(=O)N2CCN(Cc3ccccc3)CC2)cn1 (stereo not drawn)
CC50 [7]: > 40 µM (active)

COc1ccc(-c2cc([N+](=O)[O-])ccc2OCC(=O)N(C)CC(=O)Nc2ccc(C)cc2)cc1
IC50 (Fatty acid synthase [2]): 7.56 µM (active)
IC50 (Fatty acid synthase [3]): 7.78 µM (active)

CC[C@@]1(C(=O)OC)N[C@H](CN(C)C(=O)Nc2ccc(F)cc2)[C@@H]2C(=O)N(Cc3ccccc3)C(=O)[C@@H]21
AC50 [12]: 0.744 µM (active)
AC50 [13]: 0.401 µM (active)
AC50 [14]: 0.378 µM (active)
AC50 [15]: 0.614 µM (active)

C[C@H]1CCCCO[C@H](CN(C)C(=O)Nc2ccc(F)cc2)[C@@H](C)CN([C@@H](C)CO)C(=O)c2cc(NC(=O)Nc3ccc(C(F)(F)F)cc3)ccc2O1
AC50 (Paired box protein Pax-8): 8.09 µM (active)
AC50 [18]: 58.3 µM (active)

C[C@H]1CN([C@@H](C)CO)C(=O)c2c(c3ccccc3n2C)-c2ccccc2CO[C@H]1CN(C)S(=O)(=O)c1ccc(C(F)(F)F)cc1
AC50 (Paired box protein Pax-8): 3.69 µM (active)
AC50 [19]: < 0.3 µM (active)
AC50 [18]: 50.8 µM (active)
AC50 [20]: 0.251 µM (active)
AC50 [21]: 0.23 µM (active)
AC50 [22]: 32.1 µM (active)
AC50 [23]: 0.216 µM (active)

CC(C)CC#Cc1ccc2c(c1)O[C@H](CN(C)Cc1ccc(F)cc1)[C@H](C)CN([C@H](C)CO)S2(=O)=O
AC50 (Paired box protein Pax-8): 23.1 µM (active)
AC50 [18]: 61.2 µM (active)

Nc1nnc(CC(=O)N/N=C/c2cccc([N+](=O)[O-])c2)s1
AC50 (Cytochrome P450 2C9): inconclusive
AC50 (Cytochrome P450 1A2): 31.6 µM (inconclusive)

Cc1cc(C(=O)N/N=C/c2cc([N+](=O)[O-])ccc2O)c2ccccc2n1
IC50 (Fatty acid synthase [2]): 3.18 µM (active)
IC50 (Fatty acid synthase [3]): 2.75 µM (active)
IC50 (Nonstructural protein 1): 5.29 µM (active)

CCO/C(O)=C/c1nc2ccccc2sc1=O
AC50 [12]: 5.57 µM (active)
AC50 [13]: 5.7 µM (active)
AC50 [14]: 5.06 µM (active)
AC50 [15]: 3 µM (active)

CC1(C)CC2C1CCC1(C)OC1CCC2(C)O (stereo not drawn) [2-HYDROXY-5 (6)EPOXY-TETRAHYDROCARYOPHYLLENE]
AC50 (Cytochrome P450 3A4 [4]): 25.1 µM (inconclusive)

C=C[C@H]1CN2CC[C@H]1C[C@H]2c1[nH]c2ccccc2c1CCO [CINCHONAMINE]
AC50 (Cytochrome P450 3A4 [4]): 31.6 µM (inconclusive)
